Assay [1] is described as follows: Selectivity index, ratio of CC50 for human Hep G2.2.15 cells to IC50 for surface antigen HBsAg secretion in HBV transfected Hep G2.2.15 cells. Format: functional.
Assay [2] deals with Hepatitis B virus. The assay can be described thus: Antiviral activity against HBV transfected Hep G2.2.15 cells assessed as inhibition of surface antigen HBsAg secretion. Particulars: HepG2 2.2.15. Format: functional, organism-based.
Assay [3] deals with Hepatitis B virus. As to the kind of experiment: Antiviral activity against HBV transfected Hep G2.2.15 cells assessed as inhibition of e antigen HBsAg secretion. Particulars: HepG2 2.2.15. Format: functional, organism-based.
Assay [4] can be described thus: Selectivity index, ratio of CC50 for human Hep G2.2.15 cells to IC50 for HBV e antigen secretion in HBV transfected Hep G2.2.15 cells. Format: functional.
A short description of assay [5]: Cytotoxicity against human Hep G2.2.15 cells. Format: functional. Particulars: HepG2 2.2.15.

Broadly, the IC50 is the concentration that inhibits the measured activity by half. As usually defined, the CC50 is the concentration that lowers cell viability or growth by half. Lower therefore signals harm at low concentration. As to `CCN(CC)C1=CC(=O)[C@]2([C@@H](Cl)C[C@@]34C(OC)=C(OC)C(=O)C[C@@]23CCN4C)[C@H]1O` [HYPSERPANINE A], the “Ratio CC50/IC50” value was 1.57 in assay [1] and less than 1 in assay [4]. Also, the values for the IC50 in the assay with Hepatitis B virus [2] and in the assay on Hepatitis B virus [3] were 1420 µM and more than 2870 µM, respectively. The CC50 in assay [5] was 2230 µM.
`COc1ccc2c3c1-c1c(ccc(O)c1O)C[C@@H]3[N+](C)(C)CC2` [HYPSERPANINE B]: the IC50 with Hepatitis B virus [2] and in the assay with Hepatitis B virus [3] was more than 3620 µM throughout. This compound displayed a 50% cytotoxic concentration (CC50) in assay [5] of more than 3620 µM.
On to `COc1cc2c3c(c1OC)C1(C=CC(=O)C=C1)C[C@H]3N(C)CC2` [PRONUCIFERINE], for which the “Ratio CC50/IC50” value in assay [1] was 1.19; in assay [4], less than 1. For the same compound, the concentration for half-maximal inhibition (IC50) is 42 µM in the assay on Hepatitis B virus [2] and more than 4180 µM in the assay with Hepatitis B virus [3]. This compound also registered a CC50 in assay [5] of 50 µM.
For `COC1=CC(=O)[C@]2([C@@H](Cl)C[C@]34NCC[C@]23CC(=O)C(OC)=C4OC)[C@H]1O` [DAURICUMIDINE], in that order: 4.13, less than 1, 450 µM, more than 3850 µM and 1860 µM.
Regarding `COc1ccc(C[C@H]2c3cc(O)c(OC)cc3CCN2C)cc1O` [(S)-RETICULINE], the “Ratio CC50/IC50” value in assay [1] and in assay [4] was less than 1 in each case. The IC50 in the assay with Hepatitis B virus [2] is 2140 µM; with Hepatitis B virus [3], more than 2990 µM. The compound further registered a half-maximal cytotoxic concentration (CC50) in assay [5] of 1910 µM.
With `COC1=CC(=O)[C@@]2([C@@H]1O)[C@@H](Cl)C[C@]13NCC[C@]21CC(=O)C(OC)=C3OC` [ACUTUMIDINE], in assay [1], the “Ratio CC50/IC50” value is on record as more than 1.31. Moreover, the IC50 in the assay on Hepatitis B virus [2] was 2020 µM; in the assay on Hepatitis B virus [3], more than 2890 µM. Further, the half-maximal cytotoxic concentration (CC50) in assay [5] is more than 2890 µM.
As to `COc1ccc2c(c1O)-c1c(O)c(OC)cc3c1[C@H](C2)[N+](C)(C)CC3` [MAGNOFLORINE], the IC50 in the assay with Hepatitis B virus [2] and in the assay with Hepatitis B virus [3] was more than 4110 µM each time. This compound gave a CC50 in assay [5] of more than 4110 µM.
For `COC1=CC(=O)[C@@]2([C@@H]1O)[C@@H](Cl)C[C@@]13C(OC)=C(OC)C(=O)C[C@@]21CCN3C` [ACUTUMINE], the IC50 was more than 2990 µM in the assay on Hepatitis B virus [2] and more than 2980 µM with Hepatitis B virus [3]. This compound also showed a CC50 in assay [5] of more than 2990 µM.
As for `COC1=CC(=O)[C@]2(CC[C@@]34C(OC)=C(OC)C(=O)C[C@]32CCN4C)[C@@H]1O` [DECHLOROACUTUMINE], the IC50 in the assay on Hepatitis B virus [2] and with Hepatitis B virus [3] was more than 2930 µM in each case. The compound also displayed a CC50 in assay [5] of 2930 µM.
Regarding `Nc1ccn([C@@H]2CS[C@H](CO)O2)c(=O)n1` [LAMIVUDINE], the “Ratio CC50/IC50” value is 2.56 in assay [1] and 1.16 in assay [4]. Also, the figures for the concentration for half-maximal inhibition (IC50) in the assay on Hepatitis B virus [2] and in the assay on Hepatitis B virus [3] were 11700 µM and 25900 µM, respectively. The compound also displayed a CC50 in assay [5] of 30000 µM.
Consider `COC1=CC(=O)[C@]2([C@@H](Cl)C[C@@]34C(OC)=C(OC)C(=O)C[C@@]23CCN4C)[C@H]1O` [DAURICUMINE], for which the “Ratio CC50/IC50” value is 1.67 in assay [1] and less than 1 in assay [4]. The concentration for half-maximal inhibition (IC50) is 1310 µM with Hepatitis B virus [2] and more than 3290 µM in the assay on Hepatitis B virus [3]. For the same compound, the CC50 in assay [5] was 2190 µM.
For the compound `COc1cc2c(cc1O)C[C@H]1c3c(cc(OC)c(O)c3-2)CC[N+]1(C)C` [LAURIFOLINE], the IC50 in the assay with Hepatitis B virus [2] and with Hepatitis B virus [3] was more than 3680 µM each time. Further, the CC50 in assay [5] is more than 3680 µM.
With `COc1c(O)cc2c(c1OC)C=[N+](C)CC2` [PHENOLBETAIN], the “Ratio CC50/IC50” value in assay [1] and in assay [4] was less than 1 each time. Besides, the IC50 in the assay with Hepatitis B virus [2] was 2370 µM; in the assay with Hepatitis B virus [3] it was more than 4520 µM. Moreover, the cytotoxic concentration (CC50) in assay [5] came out at 2180 µM.
Regarding `COc1cc2c3c(c1O)C1(C=CC(=O)C=C1)CC3N(C)CC2` (centres undefined) [GLAZIOVINE], the “Ratio CC50/IC50” value in assay [1] and in assay [4] was less than 1 throughout. For the same compound, the half-maximal inhibitory concentration (IC50) in the assay on Hepatitis B virus [2] came out at 8 µM; in the assay with Hepatitis B virus [3], 3690 µM. The compound further returned a half-maximal cytotoxic concentration (CC50) in assay [5] of 7 µM.

The values are drawn from ChEMBL document CHEMBL1149710, “Two new alkaloids and active anti-hepatitis B virus constituents from Hypserpa nitida” (Bioorg Med Chem Lett, 2007).
